A short description of data set [1]: Cytotoxicity in murine macrophages (MTT). It counts as cell-based. Conditions: mouse, J774.1 murine macrophages; 48 hs. The procedure: (§1) TZM-bl cells, U87-CD4-CCR5, murine macrophages (J774.1), and THP-1 monocytes (ATCC®TIB-202™) were grown following ATCC recommendations. Cells were seeded in a 96-well plate (10^4 cells in 200 µL culture medium) and incubated at 37 °C in a 5% CO2 atmosphere for 48 h, to allow cell adhesion before drug testing. For stimulation (THP-1 monocytes), cells were incubated with 100 nM of phorbol 12-myristate 13-acetate (PMA) for 48 h. […] A vehicle for control (0.4% DMSO) and negative wells (cells in medium) was used in each test. […] After removing the medium, formazan crystals were dissolved in 180 µL of DMSO and 20µL of MTT buffer (0.1 M glycine, 0.1 M NaCl, 0.5 mM EDTA, pH 10.5), and the absorbance at 560 nm was measured. […] Tests were performed in triplicate, in two independent experiments.

The nature of data set [2]: Cytotoxicity in TZM-bl cells (MTT). It is filed as cell-based, human. As to conditions: human, TZM-bl cells; 48hs. How it is done:
as §1

In data set [3] the test system is TZM-bl cells. Description: Cytotoxicity in TZM-bl cells (MTT). It is filed as cell-based, human. As to conditions: Homo sapiens, TZM-bl; Table 1, 696, 48hs. The procedure:
as §1

The nature of data set [4]: Cytotoxicity in human macrophages (PMA-stimulated THP-1 monocytes, MTT). It is filed as cell-based. As to conditions: PMA-stimulated THP-1 monocytes (human macrophages), 48hs. How it is done:
as §1

Data set [5] can be described thus: Cytotoxicity in mammalian cells (MTT, all cell types). It is filed as cell-based. Conditions: tested at 25, 50, and 100 µM. How it is done:
The cytotoxicity of the compounds was assayed in different types of cells (TZM-bl cells, U87-CD4-CCR5, murine macrophages (J774.1), and THP-1 monocytes) at 25, 50, and 100 µM (Fig. 2). […] Compound 314 has the most complete toxicology profile because was preclinically developed for Chagas disease infection, as an antiparasitic drug. […] It has lower oral toxicity than PF74. Was predicted as no mutagenic by the TEST software.
TZM-bl cells, U87-CD4-CCR5, murine macrophages (J774.1), and THP-1 monocytes (ATCC®TIB-202™) were grown following ATCC recommendations. Cells were seeded in a 96-well plate (10^4 cells in 200 µL culture medium) and incubated at 37 °C in a 5% CO2 atmosphere for 48 h, to allow cell adhesion before drug testing. For stimulation (THP-1 monocytes), cells were incubated with 100 nM of phorbol 12-myristate 13-acetate (PMA) for 48 h. PMA was then washed and cells were left for an additional 24 h, 48 h or11 days (only U87 cells) with growth media containing compound 696 at 10, 25, 50, and 100 µM. […] Cell viability was then assessed by measuring the mitochondria-dependent reduction of MTT (3-(4,5-dimethylthiazol-2-yl)-2,5-diphenyltetrazolium bromide) to formazan. […] After removing the medium, formazan crystals were dissolved in 180 µL of DMSO and 20µL of MTT buffer (0.1 M glycine, 0.1 M NaCl, 0.5 mM EDTA, pH 10.5), and the absorbance at 560 nm was measured. […]

Data set [6] has as its target T1, monomeric HIV-1 CA (Human immunodeficiency virus type 1 group M subtype B, UniProt P12493).
T1 construct: the capsid protein (CA) of the Gag polyprotein; made in house
Description: Affinity for HIV-1 CA by microscale thermophoresis (MST). It counts as binding. The procedure: The affinity of compound 696 for HIV-1 CA in vitro was measured by microscale thermophoresis (MST) as described previously for FIV CA [31]. Due to its intrinsic autofluorescence interfering with MST, the binding of compound 314 to CA was measured using isothermal microcalorimetry (ITC) with a Microcal iTC200 calorimeter (Malvern Instruments, Worcestershire, UK). The calorimeter cell contained 200 µL of recombinant HIV-1 CA (kind gifted by Drs Verrier and Coiffier) at 0.78 mg/mL in phosphate buffer (NaH2PO4/Na2HPO4) 50 mM pH 7.5, NaCl 100 mM, 1% DMSO [v/v]. Compound 314 at 200 µM was then injected sequentially into the calorimeter cell (injection #1: 1 µL, injections #2-#20: 2 µL) at 120 s intervals. Data were analyzed using the OriginLab8.5® software according to the manufacturer’s instructions.
Background: In MST a laser heats a spot of the sample, and binding alters the fluorescence response.

For data set [7], the target named is HIV-1 CA (Human immunodeficiency virus type 1 group M subtype B, UniProt P12493). Description: HIV-1 CA assembly inhibition assay (absorbance at 340 nm). It counts as biochemical. Set-up: the capsid protein (CA) of the Gag polyprotein; made in house; host or cells: Escherichia coli BL21(DE3) pLysS. The procedure: The CA assembly assay was performed in a final volume of 70 µL in 384-well plates, with a final concentration of 5 mg/mL of purified recombinant HIV-1 CA in Phosphate/NaCl Buffer (NaH2PO4/Na2HPO4 50 mM, NaCl 100 mM, pH 7.4), as described for FIV CA [27, 31]. Absorbance was measured at 340 nm every 30 s in a multiplate reader VarioskanTM Flash Multimode Reader (Thermo Scientific, MA, US) at 37 °C for 30 min. The compounds were tested at a fixed initial dose of 25 or 50 µM (at 0.5% DMSO [v/v]) by adding 1 µL of the concentrated ligand to the well before starting the measurement. The controls were CA at 5 mg/mL in only 0.5% DMSO [v/v] and CA without DMSO. The criteria to select active compounds were the observation of at least 50% of assembly inhibition at these doses, based on the reduction of the OD value at 340 nm at the plateau value compared to the controls.

Like-named read-outs stand apart in the source and are kept apart here.

One may read the EC50 as the concentration that produces a half-maximal response. Usually Kd stands for the constant that tells how readily two partners part at equilibrium. Low readings indicate higher affinity, high ones lower affinity. Turning to `Cc1ccc2c(c1)nc(-c1ccc(N(C)C)cc1)n2CCc1ccccc1` [compound 696, 2-(4-N,N-dimethylaminophenyl)-5-methyl-1-phenethyl-1H-benzimidazole], the EC50 at 48 h in data set [1] is above 50 µM; in data set [2], above 50 µM; in data set [4], above 100 µM. For the same compound, the results for the EC50 in data set [3] and in data set [5] were above 25 µM and above 50 µM, respectively. In data set [6], this compound had a dissociation constant Kd of 69 ± 6 µM. Moreover, the “Effect in p24 multimerization in vitro” value is listed as “inhibited” in data set [7] and “inhibition” in data set [7] (listed as C00002). Also, the “interference with the assembly of HIV-1 CA in vitro” value in data set [7] (compounds at 25 or 50 µM, CA 5 mg/mL, 30 min) is on record as “interference with the assembly”.

The record behind these values is publication PMC9241302, “Identification of 2-(4-N,N-Dimethylaminophenyl)-5-methyl-1-phenethyl-1H-benzimidazole targeting HIV-1 CA capsid protein and inhibiting HIV-1 replication in cellulo” (BMC Pharmacology & Toxicology, 2022).
